This assay has as its target MCH receptor (Homo sapiens, UniProt Q99705). Put plainly: High throughput functional screening FLIPR/FDSS6000: inhibition of MCH-evoked intracellular Ca2+ changes. The assay is classed as cell-based. As to conditions: class by percent of control at 10^-7 M or IC50. The gist of the method:
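Fluo4 fluorescence (Ex 488 nm, Em 530 nm) tracked MCH-evoked [Ca2+]i transients over 290 s by FLIPR or FDSS. Cells carried a constitutively active, non-endogenous receptor version. Compounds were added 3 min before a 50 nM MCH challenge.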

Structures are written as SMILES.

Regarding `CC(C)c1ccc(NC(=S)N[C@H]2CC[C@@H](Nc3nc(N(C)C)c4ccccc4n3)CC2)c(Br)c1` [compound 363, N-(2-bromo-4-isopropylphenyl)-N′-(cis-4-{[4-(dimethylamino)quinazolin-2-yl]amino}cyclohexyl)thiourea], the class was 2 (Class 2: The value of percent of control at 10^−7 M was from 40% to 60% or the value of IC50 was from 50 nM to 200 nM.).

Turning to `CN(C)c1nc(N[C@H]2CC[C@@H](NC(=S)Nc3cc(F)ccc3Br)CC2)nc2ccccc12` [compound 364], the class is 2 (Class 2: The value of percent of control at 10^−7 M was from 40% to 60% or the value of IC50 was from 50 nM to 200 nM.).

Regarding `CCOc1ccccc1NC(=S)N[C@H]1CC[C@@H](Nc2nc(N(C)C)c3ccccc3n2)CC1` [compound 365, N-(cis-4-{[4-(dimethylamino)quinazolin-2-yl]amino}cyclohexyl)-N′-(2-ethoxyphenyl)thiourea], the class is listed as 1 (Class 1: The value of percent of control at 10^−7 M was less than 40% or the value of IC50 was less than 50 nM.).

With `Cc1cccc(C(C)C)c1NC(=S)N[C@H]1CC[C@@H](Nc2nc(N(C)C)c3ccccc3n2)CC1` [compound 366, N-(cis-4-{[4-(dimethylamino)quinazolin-2-yl]amino}cyclohexyl)-N′-(2-isopropyl-6-methylphenyl)thiourea], the class is 1 (Class 1: The value of percent of control at 10^−7 M was less than 40% or the value of IC50 was less than 50 nM.).

As for `COc1ccccc1CNC(=S)N[C@H]1CC[C@@H](Nc2nc(N(C)C)c3ccccc3n2)CC1` [compound 367, N-(cis-4-{[4-(dimethylamino)quinazolin-2-yl]amino}cyclohexyl)-N′-(2-methoxybenzyl)thiourea], the class is reported as 2 (Class 2: The value of percent of control at 10^−7 M was from 40% to 60% or the value of IC50 was from 50 nM to 200 nM.).

With `CN(C)c1nc(N[C@H]2CC[C@@H](NC(=S)Nc3ccc4c(c3)OCCO4)CC2)nc2ccccc12` [compound 368, N-(2,3-dihydro-1,4-benzodioxin-6-yl)-N′-(cis-4-{[4-(dimethylamino)quinazolin-2-yl]amino}cyclohexyl)thiourea], the class was 1 (Class 1: The value of percent of control at 10^−7 M was less than 40% or the value of IC50 was less than 50 nM.).

Consider `Cc1ccc(NC(=S)N[C@H]2CC[C@@H](Nc3nc(N(C)C)c4ccccc4n3)CC2)cc1C` [compound 369], for which the class is recorded as 3 (Class 3: The value of percent of control at 10^−7 M was more than 60% or the value of IC50 was more than 200 nM.).

Consider `CN(C)c1nc(N[C@H]2CC[C@@H](NC(=S)Nc3ccc4c(c3)OCO4)CC2)nc2ccccc12` [compound 370, N-1,3-benzodioxol-5-yl-N′-(cis-4-{[4-(dimethylamino)quinazolin-2-yl]amino}cyclohexyl)thiourea], for which the class is 1 (Class 1: The value of percent of control at 10^−7 M was less than 40% or the value of IC50 was less than 50 nM.).

Consider `Cc1c(Cl)cccc1NC(=S)N[C@H]1CC[C@@H](Nc2nc(N(C)C)c3ccccc3n2)CC1` [compound 371], for which the class is given as 1 (Class 1: The value of percent of control at 10^−7 M was less than 40% or the value of IC50 was less than 50 nM.).

For the compound `CN(C)c1nc(N[C@H]2CC[C@@H](NC(=S)Nc3ccc(Br)cc3OC(F)(F)F)CC2)nc2ccccc12` [compound 372, N-[4-bromo-2-(trifluoromethoxy)phenyl]-N′-(cis-4-{[4-(dimethylamino)quinazolin-2-yl]amino}cyclohexyl)thiourea], the class is 1 (Class 1: The value of percent of control at 10^−7 M was less than 40% or the value of IC50 was less than 50 nM.).

As for `COc1cc(NC(=S)N[C@H]2CC[C@@H](Nc3nc(N(C)C)c4ccccc4n3)CC2)c(OC)cc1Cl` [compound 373, N-(4-chloro-2,5-dimethoxyphenyl)-N′-(cis-4-{[4-(dimethylamino)quinazolin-2-yl]amino}cyclohexyl)thiourea], the class is recorded as 1 (Class 1: The value of percent of control at 10^−7 M was less than 40% or the value of IC50 was less than 50 nM.).

Regarding `CN(C)c1nc(N[C@H]2CC[C@@H](NC(=S)NCCCCc3ccccc3)CC2)nc2ccccc12` [compound 374], the class is recorded as 2 (Class 2: The value of percent of control at 10^−7 M was from 40% to 60% or the value of IC50 was from 50 nM to 200 nM.).

For the compound `CN(C)c1nc(N[C@H]2CC[C@@H](NC(=S)Nc3ccc(C(C)(C)C)cc3)CC2)nc2ccccc12` [compound 375], the class is listed as 3 (Class 3: The value of percent of control at 10^−7 M was more than 60% or the value of IC50 was more than 200 nM.).

For the compound `CN(C)c1nc(N[C@H]2CC[C@@H](NC(=S)Nc3cc(Cl)ccc3F)CC2)nc2ccccc12` [compound 376], the class is given as 3 (Class 3: The value of percent of control at 10^−7 M was more than 60% or the value of IC50 was more than 200 nM.).

On to `CN(C)c1nc(N[C@H]2CC[C@@H](NC(=S)NCC3CC3)CC2)nc2ccccc12` [compound 379], for which the class is reported as 3 (Class 3: The value of percent of control at 10^−7 M was more than 60% or the value of IC50 was more than 200 nM.).

For the compound `CCOC(=O)c1c(NC(=S)N[C@H]2CC[C@@H](Nc3nc(N(C)C)c4ccccc4n3)CC2)sc2c1CCCC2` [compound 380], the class is reported as 3 (Class 3: The value of percent of control at 10^−7 M was more than 60% or the value of IC50 was more than 200 nM.).

Regarding `COC(=O)c1scc(C)c1NC(=S)N[C@H]1CC[C@@H](Nc2nc(N(C)C)c3ccccc3n2)CC1` [compound 381], the class is on record as 1 (Class 1: The value of percent of control at 10^−7 M was less than 40% or the value of IC50 was less than 50 nM.).

Regarding `COC(=O)c1sccc1NC(=S)N[C@H]1CC[C@@H](Nc2nc(N(C)C)c3ccccc3n2)CC1` [compound 382], the class is listed as 1 (Class 1: The value of percent of control at 10^−7 M was less than 40% or the value of IC50 was less than 50 nM.).

`CN(C)c1nc(N[C@H]2CC[C@@H](NC(=S)Nc3ccc(F)cc3Br)CC2)nc2ccccc12` [compound 383]: the class is recorded as 2 (Class 2: The value of percent of control at 10^−7 M was from 40% to 60% or the value of IC50 was from 50 nM to 200 nM.).

For `CN(C)c1nc(N[C@H]2CC[C@@H](NC(=S)Nc3ccc(F)c(Cl)c3)CC2)nc2ccccc12` [compound 384], the class is listed as 3 (Class 3: The value of percent of control at 10^−7 M was more than 60% or the value of IC50 was more than 200 nM.).

In the case of `CCCCc1ccc(NC(=S)N[C@H]2CC[C@@H](Nc3nc(N(C)C)c4ccccc4n3)CC2)c(C)c1` [compound 385], the class was 1 (Class 1: The value of percent of control at 10^−7 M was less than 40% or the value of IC50 was less than 50 nM.).

Regarding `CN(C)c1ccc(NC(=S)N[C@H]2CC[C@@H](Nc3nc(N(C)C)c4ccccc4n3)CC2)cc1` [compound 386], the class was 3 (Class 3: The value of percent of control at 10^−7 M was more than 60% or the value of IC50 was more than 200 nM.).

Consider `CCN(CC)CCCNC(=S)N[C@H]1CC[C@@H](Nc2nc(N(C)C)c3ccccc3n2)CC1` [compound 387], for which the class is 3 (Class 3: The value of percent of control at 10^−7 M was more than 60% or the value of IC50 was more than 200 nM.).

In the case of `CN(C)c1nc(N[C@H]2CC[C@@H](NC(=S)NCCN3CCOCC3)CC2)nc2ccccc12` [compound 388], the class is 3 (Class 3: The value of percent of control at 10^−7 M was more than 60% or the value of IC50 was more than 200 nM.).

The record behind these values is patent US20070010671A1, “Novel quinazoline derivatives and methods of treatment related to the use thereof” (priority 2003, published 2007).
